Non-standard residues stand in square brackets, D forms with d. Residues, ends and D or L forms follow the SMILES beside them. ξ: configuration not given here. *: point of attachment. Nle = CCCC[C@H](N)C(=O)O; Nva = CCC[C@H](N)C(=O)O; Cbz = O=C(OCc1ccccc1)*; ξI = CCC(C)C(N)C(=O)O; OtBu = CC(C)(C)O*
Assays:
SARS-CoV = experiment: microbe, parasite or virus in culture; conditions: Severe acute respiratory syndrome coronavirus, read-out: EC50 against SARS-CoV
EV-A71 2A protease = EV-A71 2A protease (Human enterovirus 71, UniProt Q66478); experiment: biochemical; conditions: for IC50: read-out: EVA71 2A IC50
MERS-CoV = experiment: microbe, parasite or virus in culture; conditions: Middle East respiratory syndrome-related coronavirus, read-out: EC50 against MERS-CoV
[1] = test system: A/California/07/2009 (H1N1); experiment: Counter screening against influenza virus in plaque assay; format: cell-based; conditions: read-out: Antiviral activity against A/California/07/2009 (H1N1)
EV-A71 3C protease = EV-A71 3C protease (Human enterovirus 71, UniProt Q66478); experiment: biochemical
in vitro [2] = experiment: in vitro
SARS-CoV-2 = experiment: Antiviral CPE assay against SARS-CoV-2; format: cell-based; conditions: Severe acute respiratory syndrome coronavirus 2
[3] = Cytotoxicity CPE assay (neutral red), MDCK; format: cell-based; conditions: dog, MDCK cells, mean ± S.E.
[4] = Cytotoxicity CPE assay (neutral red), Caco-2; format: cell-based; conditions: human, Caco-2 cells, mean ± S.E.
[5] = Cellular cytotoxicity in multiple cell lines; conditions: human, dog, African green monkey
[6] = Cytotoxicity CPE assay (neutral red), Vero; format: cell-based; conditions: African green monkey, Vero cells, mean ± S.E.
[7] = Cytotoxicity CPE assay (neutral red), A549; format: cell-based; conditions: human, A549 cells, mean ± S.E.
[8] = Cytotoxicity CPE assay (neutral red), HCT-8; format: cell-based; conditions: human, HCT-8 cells, mean ± S.E.
[9] = Cytotoxicity CPE assay (neutral red), BEAS2B; format: cell-based; conditions: human, BEAS2B cells, mean ± S.E.
in vitro [10] = experiment: in vitro; remark: listed apart in the source
[11] = Antiviral CPE assay against SARS-CoV-2; format: cell-based
SARS-CoV 3CL^pro = SARS-CoV 3CL^pro (Severe acute respiratory syndrome coronavirus, UniProt P0C6X7); conditions: read-out: IC50 against the SARS-CoV 3CL^pro; cited from earlier work

Sequence of EV-A71 2A protease (Q66478 863-1012): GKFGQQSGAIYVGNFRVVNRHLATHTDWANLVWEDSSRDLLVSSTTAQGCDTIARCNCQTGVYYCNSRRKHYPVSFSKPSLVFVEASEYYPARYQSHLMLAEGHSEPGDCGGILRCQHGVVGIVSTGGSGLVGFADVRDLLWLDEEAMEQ
Sequence of EV-A71 3C protease (Q66478 1549-1731): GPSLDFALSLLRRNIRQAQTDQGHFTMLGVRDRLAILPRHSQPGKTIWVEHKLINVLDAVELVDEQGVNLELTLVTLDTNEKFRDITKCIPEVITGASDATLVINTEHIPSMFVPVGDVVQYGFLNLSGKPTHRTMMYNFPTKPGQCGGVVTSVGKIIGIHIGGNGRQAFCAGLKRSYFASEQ

Row | Compound | EC50 (SARS-CoV) [µM] | IC50 (EV-A71 2A protease) [µM] | EC50 (MERS-CoV) [µM] | EC50 [1] [µM] | IC50 (EV-A71 3C protease) [µM] | CC50 (in vitro [2]) [µM] | EC50 (SARS-CoV-2) [µM] | also measured
1 | CC(C)(C)NC(=O)N[C@H](C(=O)N1C[C@H]2[C@@H]([C@H]1C(=O)NC(CC1CCC1)C(=O)C(N)=O)C2(C)C)C(C)(C)C (some centres unmarked) [Boceprevir (28), Boceprevir] | > 47 | > 20 | > 100 | > 20 | > 20 | > 47 | 1.9 | –
2 | CCCC[C@@H](C=O)NC(=O)[C@H](CC(C)C)NC(=O)[C@H](CC(C)C)NC(C)=O [Calpain inhibitor 1 (ALLN) (59), Calpain inhibitor 1] (Ac-Leu-Leu-[Nle]-aldehyde) | – | > 20 | – | – | > 20 | – | – | –
3 | CSCC[C@@H](C=O)NC(=O)[C@H](CC(C)C)NC(=O)[C@H](CC(C)C)NC(C)=O [Calpain inhibitor II (61), Calpain inhibitor II] (Ac-Leu-Leu-Met-aldehyde) | 3.6 | > 20 | 14 | > 20 | > 20 | > 100 | 1.2 | CC50 at 48 h [3]: > 100 µM; CC50 at 48 h [4]: > 100 µM; CC50 at 48 h [5]: > 100 µM; CC50 at 48 h [6]: > 100 µM; CC50 at 48 h [7]: > 100 µM; CC50 at 48 h [8]: > 100 µM; CC50 at 48 h [9]: > 100 µM; CC50 (in vitro [10]): > 100 µM; CC50 [11]: > 100 µM
4 | CC(C)C[C@@H](C=O)NC(=O)[C@@H](NS(=O)(=O)c1ccc(F)cc1)C(C)C [Calpain inhibitor VI (58), Calpain inhibitor VI] | – | – | – | – | > 20 | – | – | –
5 | CCC[C@H](NC(=O)[C@H](CC(C)C)NC(=O)OCc1ccccc1)C(=O)C(=O)NCc1ccccn1 [Calpain inhibitor XII (62), Calpain inhibitor XII] | 7.4 | > 20 | 7.9 | > 20 | > 20 | – | 0.3 | CC50 at 48 h [3]: 60.4 ± 2.28 µM; CC50 at 48 h [4]: 82.02 ± 0.37 µM; CC50 at 48 h [5]: > 50 µM; CC50 at 48 h [6]: > 100 µM; CC50 at 48 h [7]: > 100 µM; CC50 at 48 h [8]: 73.3 ± 11.8 µM; CC50 at 48 h [9]: 78.9 ± 13.7 µM; CC50 [11]: > 50 µM
6 | CCCC[C@@H](C=O)NC(=O)[C@H](CC(C)C)NC(=O)OCc1ccccc1 [Calpeptin (56), Calpeptin] | – | > 20 | – | – | > 20 | – | – | –
7 | CC(C)C[C@H](NC(=O)OCc1ccccc1)C(=O)N[C@@H](C[C@@H]1CCNC1=O)C(O)S(=O)(=O)[O-].[Na+] (some centres unmarked) [GC-376 (64), GC-376] | […] | > 20 | […] | > 20 | 0.136 ± 0.025 | > 100 | 1.9 | CC50 at 48 h [3]: > 100 µM; CC50 at 48 h [4]: > 100 µM; activity against the EV-A71 2A protease (EV-A71 2A protease): not active; CC50 at 48 h [5]: > 100 µM; CC50 at 48 h [6]: > 100 µM; CC50 at 48 h [7]: > 100 µM; CC50 at 48 h [8]: > 100 µM; CC50 at 48 h [9]: > 100 µM; CC50 (in vitro [10]): > 100 µM; inhibition against the EV-A71 3C protease (EV-A71 3C protease): potent inhibition; CC50 [11]: > 100 µM
8 | CCC[C@@H](C=O)NC(=O)[C@H](CC(C)C)NC(=O)[C@H](CC(C)C)NC(=O)OCc1ccccc1 [MG-115 (60), MG-115] (Cbz-Leu-Leu-[Nva]-aldehyde) | – | > 20 | – | – | > 20 | – | – | –
9 | CC(C)C[C@@H](C=O)NC(=O)[C@H](CC(C)C)NC(=O)[C@H](CC(C)C)NC(=O)OCc1ccccc1 [MG-132 (43), MG-132] (Cbz-Leu-Leu-Leu-aldehyde) | > 0.7 | > 20 | > 10 | – | > 20 | > 0.7 | 0.87 | –
10 | CCCC[C@H](NC(=O)[C@@H]1[C@@H]2[C@H](CN1C(=O)[C@@H](NC(=O)NC1(CS(=O)(=O)C(C)(C)C)CCCCC1)C(C)(C)C)C2(C)C)C(=O)C(=O)NC1CC1 [Narlaprevir (29), Narlaprevir] | – | > 20 | – | – | > 20 | – | – | –
11 | CCC(C)C(NC(=O)OCc1ccccc1)C(=O)N[C@@H](CCC(=O)OC(C)(C)C)C(=O)N[C@@H](C)C(=O)N[C@H](C=O)CC(C)C (some centres unmarked) [PSI (63), PSI] (Cbz-[ξI]E(OtBu)AL-aldehyde) | – | 1.22 | – | – | 13.7 ± 3.86 | – | – | –
12 | CCOC(=O)/C=C/[C@H](C[C@@H]1CCNC1=O)NC(=O)[C@@H](CC(=O)[C@@H](NC(=O)c1cc(C)on1)C(C)C)Cc1ccc(F)cc1 [Rupintrivir (65), Rupintrivir] | – | > 20 | – | – | 0.042 ± 0.014 | – | – | activity against the EV-A71 2A protease (EV-A71 2A protease): not active; IC50 (SARS-CoV 3CL^pro): > 100 µM; inhibition against the EV-A71 3C protease (EV-A71 3C protease): potent inhibition

Reference: patent US12715896B2 (priority 2020, dated 2026)
